Measured values as given in patent US20170362228A1, “TETRAHYDRO-PYRIDO[3,4-b]INDOLE ESTROGEN RECEPTOR MODULATORS AND USES THEREOF” (Genentech, Inc., priority 2016, published 2017).
Read-outs that look alike come from different tables or passages of the source.

Key:
[1] = test system: MCF7 cells; assay: In vitro cell proliferation assays (Examples 902 and 903), MCF7; format: cell-based; conditions: read-out: ER-alpha MCF7 HCS (EC50)
[2] = target: T1, estrogen receptor alpha (ESR1) (Homo sapiens, UniProt P03372); assay: Breast Cancer Cell ERa High Content Fluorescence Imaging Degradation Assay (Example 901); format: cell-based; conditions: Table 1a; MCF7 breast cancer cells, 4 hours; plateau of the maximal effect; DMSO and Fulvestrant define 0% and 100% changes in ESR1
T1 construct: endogenous in cells; host or cells: MCF7 breast cancer cells
T1 sequence (P03372 1-595): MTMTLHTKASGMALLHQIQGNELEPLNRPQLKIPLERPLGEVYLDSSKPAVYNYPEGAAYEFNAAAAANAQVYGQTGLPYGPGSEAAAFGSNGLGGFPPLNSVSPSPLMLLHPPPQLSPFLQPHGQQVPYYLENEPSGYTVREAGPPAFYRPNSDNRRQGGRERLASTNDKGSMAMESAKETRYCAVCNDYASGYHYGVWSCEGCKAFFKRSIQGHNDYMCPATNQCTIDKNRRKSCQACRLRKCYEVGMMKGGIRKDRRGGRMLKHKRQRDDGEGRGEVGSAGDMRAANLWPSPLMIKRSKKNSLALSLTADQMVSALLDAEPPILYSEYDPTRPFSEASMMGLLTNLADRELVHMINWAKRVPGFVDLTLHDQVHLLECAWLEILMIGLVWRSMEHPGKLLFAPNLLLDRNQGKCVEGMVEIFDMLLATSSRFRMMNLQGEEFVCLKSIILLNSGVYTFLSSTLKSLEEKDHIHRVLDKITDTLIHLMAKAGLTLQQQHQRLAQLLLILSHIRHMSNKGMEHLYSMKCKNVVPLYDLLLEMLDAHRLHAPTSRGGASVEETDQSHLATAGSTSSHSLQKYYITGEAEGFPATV
How it was run: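 MCF7 cells in phenol red-free RPMI with 10% charcoal-stripped FBS, exposed to compound at 0.05–835 nM (10-point, 1.8×, duplicate; 0.84% DMSO) for 4 h at 37 °C. Fixed cells immunostained for ESR1 (F10 mAb, Alexa 488) with Hoechst nuclear mask; nuclear ESR1 intensity imaged per cell. DMSO and 5 nM fulvestrant set 0%/100%; EC50 and Sinf by robust fit.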

SMILES	EC50 ([1]; Table 1a) [nM]	ER-alpha MCF7 HCS (S inf) [2] [%]	EC50 ([1]; Homo sapiens, MCF7, Table 1a) [nM]
C[C@@H]1Cc2c([nH]c3ccc(F)cc23)[C@@H](c2c(F)cc(C(O)C3CN(CCCF)C3)cc2F)N1CC(C)(F)CO (stereo partly drawn) [Compound 118, 3-((1R,3R)-1-(2,6-difluoro-4-((1-(3-fluoropropyl)azetidin-3-yl)(hydroxy)methyl)phenyl)-6-fluoro-3-methyl-1,3,4,9-tetrahydro-2H-pyrido[3,4-b]indol-2-yl)-2-fluoro-2-methylpropan-1-ol]	0.022	−96.56	–
C[C@@H]1Cc2c([nH]c3ccccc23)[C@@H](c2c(F)cc([C@H](O)C3CN(CCCF)C3)cc2F)N1CC(F)(F)F [Compound 119, (R)-(3,5-difluoro-4-((1R,3R)-3-methyl-2-(2,2,2-trifluoroethyl)-2,3,4,9-tetrahydro-1H-pyrido[3,4-b]indol-1-yl)phenyl)(1-(3-fluoropropyl)azetidin-3-yl)methanol]	–	−98.93	0.085
C[C@@H]1Cc2c([nH]c3ccccc23)[C@@H](c2c(F)cc([C@@H](O)C3CN(CCCF)C3)cc2F)N1CC(F)(F)F [Compound 120, (S)-(3,5-difluoro-4-((1R,3R)-3-methyl-2-(2,2,2-trifluoroethyl)-2,3,4,9-tetrahydro-1H-pyrido[3,4-b]indol-1-yl)phenyl)(1-(3-fluoropropyl)azetidin-3-yl)methanol]	–	−99.17	0.037
C[C@@H]1Cc2c([nH]c3ccccc23)[C@@H](c2ccc([C@H](F)C3CN(CCCF)C3)cc2)N1CC(F)(F)CO [Compound 123]	–	−98.38	0.041
C[C@@H]1Cc2c([nH]c3ccccc23)[C@@H](c2ccc([C@@H](F)C3CN(CCCF)C3)cc2)N1CC(F)(F)CO [Compound 124, 2,2-difluoro-3-((1R,3R)-1-(4-((S)-fluoro(1-(3-fluoropropyl)azetidin-3-yl)methyl)phenyl)-3-methyl-1,3,4,9-tetrahydro-2H-pyrido[3,4-b]indol-2-yl)propan-1-ol]	–	−96.62	0.022
C[C@@H]1Cc2c([nH]c3ccccc23)[C@@H](c2ccc([C@H](F)C3CN(CCCF)C3)cc2F)N1CC(F)(F)CO [Compound 125, 2,2-difluoro-3-((1R,3R)-1-(2-fluoro-4-((R)-fluoro(1-(3-fluoropropyl)azetidin-3-yl)methyl)phenyl)-3-methyl-1,3,4,9-tetrahydro-2H-pyrido[3,4-b]indol-2-yl)propan-1-ol]	–	−98.52	0.019
C[C@@H]1Cc2c([nH]c3ccccc23)[C@@H](c2ccc([C@@H](F)C3CN(CCCF)C3)cc2F)N1CC(F)(F)CO [Compound 126, 2,2-difluoro-3-((1R,3R)-1-(2-fluoro-4-((S)-fluoro(1-(3-fluoropropyl)azetidin-3-yl)methyl)phenyl)-3-methyl-1,3,4,9-tetrahydro-2H-pyrido[3,4-b]indol-2-yl)propan-1-ol]	–	−95.71	0.021
C[C@@H]1Cc2c([nH]c3ccccc23)[C@@H](c2ccc([C@H](O)C3CN(CCCF)C3)cc2)N1CC(F)(F)CO [Compound 127, 2,2-difluoro-3-((1R,3R)-1-(4-((R)-(1-(3-fluoropropyl)azetidin-3-yl)(hydroxy)methyl)phenyl)-3-methyl-1,3,4,9-tetrahydro-2H-pyrido[3,4-b]indol-2-yl)propan-1-ol]	–	−97.29	0.071
C[C@@H]1Cc2c([nH]c3ccccc23)[C@@H](c2ccc([C@@H](O)C3CN(CCCF)C3)cc2)N1CC(F)(F)CO [Compound 128, 2,2-difluoro-3-((1R,3R)-1-(4-((S)-(1-(3-fluoropropyl)azetidin-3-yl)(hydroxy)methyl)phenyl)-3-methyl-1,3,4,9-tetrahydro-2H-pyrido[3,4-b]indol-2-yl)propan-1-ol]	–	−97.31	0.088
